Experimental data reported in patent publication US10189826B2, “Heterocyclic compounds and methods of use” (Medivation Technologies LLC, priority 2015, dated 2019).
Like-named read-outs stand apart in the source and are kept apart here.

How the values were obtained:
[1] = system: SREBP-2 transcriptional activity (SREBP2 cleavage) in HepG2_LSSprom cells; test: Luciferase reporter driven by a SREBP-2 specific promoter in HepG2_LSSprom cells; type: cell-based; details: 24 h, read-out: SREBP2 Cleavage (IC50 μM) 24 h
Protocol: Dose response effects were measured of Compounds on the transcriptional activity of a Luciferase reporter driven by a SREBP-2 specific promoter in HepG2_LSSprom cells.
(§1) HepG2_LSSprom cells (SwitchGear Genomics, cat# C711010L) were cultured in DMEM with 10% of fetal bovine serum (FBS), supplemented with Puromycin (1 μg/mL), 1% Penicillin/Streptomycin (Pen-Strep), 37° C., humidified, 95% air and 5% CO2. Culture media was refreshed every 2 or 3 days. Cells were used between passage number 6-12.
For luminescence assays, cells were plated out at 20,000 cells/well in white 96 well plates in DMEM plus 10% FBS and 1% Pen-Strep without puromycin. After 1 day, cells were treated with Compound by diluting the drug in culture medium without FBS to a final concentration of 0.625, 1.25, 2.5, 3.75, 5 and 10 μM. Drug was prepared by dilutions of 10 mM stock aliquots. As control was used culture medium without FBS plus DMSO. Treatments with Compound were maintained for 6 h, or 24 h, until the luciferase assay was carried out.
After 6 h of treatments with Compound, the luciferase assay was performed. Briefly, the assay solution (buffer+substrate) was prepare just prior to use. To each well 100 μL of assay solution was added. The 96-well plate was then gently mix for 2 min and incubated for 30 min at RT protected from light. The luminescence was read using a Synergy 4 (Biotek) equipment recording luminescence with sensibility set up at 150.
(§2) Five independent experiments were carried out for both luciferase and cytotoxicity assay. In each experiment, three wells were use per condition and the results are represented as means±SEM.
For luciferase assay, Vehicle (no treatment) was taken as 100% of luciferase activity. This value represents the SREBP-2 transcriptional activity for the vehicle condition and was taken as 100% of SREBP-2 cleaved. The percentage for each treatment was calculated normalizing against the vehicle control. The graphics were made using the GraphPad Prism ver. 6.05 software. Half of maximal inhibitory concentration (IC50) of the effect of Compound on SREBP was obtain by nonlinear fit regression of mean normalized values vs. Compound concentration using the log(inhibitor) vs. response−Variable slope (four parameters) tool.

[2] = Cytotoxicity assay (LDH release) in HepG2_LSSprom cells; type: cell-based; details: human, HepG2 LSSprom cells, 24 h treatment, LDH release
Protocol: as §1
For cytotoxicity assays, cells were plated out at 20,000 cells/well in transparent 96 well plates in DMEM plus 10% FBS and 1% Pen-Strep without puromycin. After 1 day, cells were treated with Compound by diluting in culture medium without FBS to a final concentration of 0.625, 1.25, 2.5, 3.75, 5 and 10 μM. Compound was prepared by dilutions of 10 mM stock aliquots. As a negative control culture medium was used without FBS plus DMSO. As maximum LDH release control (Lysis control) a lysis buffer provided by the kit manufacturer was used. Treatments with Compound were maintained for 6 h, or 24 h, in cell culture medium without serum until the cytotoxicity assay was started.
The cytotoxicity assay was performed according to the manufacturer's instructions. As maximum LDH release control (Lysis control) 3 wells per plate were treated with 10 μL of lysis buffer 45 min before the treatment was over. Briefly, after the 6 h, or 24 h, of treatment, 50 μL of media from each well was transferred to a new 96-well plate. To the transferred media, 50 μL of reconstituted substrate mix was added. The plates were covered from light and incubated at RT for 10 min. Then, 50 μL of stop solution was added to each well. The plates were then read using a Synergy 4 (Biotek) equipment recording the absorbance at 490 nm.
as §2
For cytotoxicity assay, Lysis control was taken as 100%/o of LDH release. The vehicle values were taken as basal LDH release and were subtracted to all the treatments (including vehicle itself) having this value as 0% of LDH release. The LDH release for the treatments was calculated respect to the 100% of LDH release of Lysis control normalized against vehicle. All the negatives values were taken as 0% of cytotoxicity. The graphics were made using the Graph Prism ver. 6.05 software.

[3] = 24 h treatment, HepG2_LSSprom cells

IC50 [1, 3] [µM] | Compound | IC50 at 24 h [2] [µM] | IC50 [1] [µM]
0.12 | CC(C)(C)c1cc(-c2cc(-c3ccc(C(=O)N4CCC[C@H](O)C4)cc3Cl)cs2)ccn1 [Compound 48b, (S)-(4-(5-(2-(tert-butyl)pyridin-4-yl)thiophen-3-yl)-3-chlorophenyl)(3-hydroxypiperidin-1-yl)methanone] | > 10 | –
> 1 | CC(C)(C)c1cc(-c2cc(-c3ccc(C(=O)Nc4cccc(O)c4)cc3Cl)cs2)ccn1 [Compound 49, 4-[5-(2-tert-butylpyridin-4-yl)thiophen-3-yl]-3-chloro-N-(3-hydroxyphenyl) benzamide] | > 10 | –
1.3 | C[C@@H]1CN(C(=O)c2ccc(-c3csc(-c4ccnc(C(C)(C)C)c4)c3)c(Cl)c2)C[C@H](C)O1 [Compound 50, (2R,6S)-4-{4-[5-(2-tert-butylpyridin-4-yl)thiophen-3-yl]-3-chlorobenzoyl}-2,6-dimethylmorpholine] | > 10 | –
1.7 | CC(C)N1CCc2cc(-c3csc(-c4ccnc(C(C)(C)C)c4)c3)c(Cl)cc2C1=O [Compound 52, 6-[5-(2-tert-butylpyridin-4-yl)thiophen-3-yl]-7-chloro-2-(propan-2-yl)-1,2,3,4-tetrahydroisoquinolin-1-one] | > 10 | –
3.9 | Cc1cc(C)c(CNC(=O)c2ccc(-c3csc(-c4ccnc(C(C)(C)C)c4)c3)c(Cl)c2)c(=O)[nH]1 [Compound 53, 4-[5-(2-tert-butylpyridin-4-yl)thiophen-3-yl]-3-chloro-N-[(4,6-dimethyl-2-oxo-1,2-dihydropyridin-3-yl)methyl]benzamide] | > 10 | –
0.54 | CC(C)(C)c1cc(-c2cc(-c3ccc(C(=O)Nc4ccc(F)cc4)cc3Cl)cs2)ccn1 [Compound 54, 4-[5-(2-tert-butylpyridin-4-yl)thiophen-3-yl]-3-chloro-N-(4-fluorophenyl) benzamide] | > 10 | –
0.36 | CC(C)(C)C(=O)NC1CCCN(C(=O)c2ccc(-c3csc(-c4ccnc(C(C)(C)C)c4)c3)c(Cl)c2)C1 (stereo not drawn) [Compound 55, N-(1-{4-[5-(2-tert-butylpyridin-4-yl)thiophen-3-yl]-3-chlorobenzoyl}piperidin-3-yl)-2,2-dimethylpropanamide] | > 10 | –
1 | CC(C)(C)c1cc(-c2cc(-c3ccc(C(=O)N4CCCC(NC(=O)NC5CC5)C4)cc3Cl)cs2)ccn1 (stereo not drawn) [Compound 56, 1-(1-{4-[5-(2-tert-butylpyridin-4-yl)thiophen-3-yl]-3-chlorobenzoyl}piperidin-3-yl)-3-cyclopropylurea] | > 10 | –
0.55 | CC(C)(C)c1cc(-c2cc(-c3ccc(C(=O)N4CCC(O)CC4)cc3Cl)cs2)ccn1 [Compound 57, 1-{4-[5-(2-tert-butylpyridin-4-yl)thiophen-3-yl]-3-chlorobenzoyl}piperidin-4-ol] | > 10 | –
1.4 | CC(C)(C)c1cc(-c2cc(-c3ccc(C(=O)Nc4cccnc4)cc3Cl)cs2)ccn1 [Compound 58, 4-[5-(2-tert-butylpyridin-4-yl)thiophen-3-yl]-3-chloro-N-(pyridin-3-yl)benzamide] | > 10 | –
1.6 | CC(C)(C)c1cc(-c2cc(-c3ccc(C(=O)N4CCC(NS(C)(=O)=O)CC4)cc3Cl)cs2)ccn1 [Compound 59, N-(1-{4-[5-(2-tert-butylpyridin-4-yl)thiophen-3-yl]-3-chlorobenzoyl}piperidin-4-yl)methanesulfonamide] | > 10 | –
3.5 | CN(C(=O)c1ccc(-c2csc(-c3ccnc(C(C)(C)C)c3)c2)c(Cl)c1)c1ncco1 [Compound 60, 4-[5-(2-tert-butylpyridin-4-yl)thiophen-3-yl]-3-chloro-N-methyl-N-(1,3-oxazol-2-yl)benzamide] | > 10 | –
1.5 | CC(C)(C)c1cc(-c2cc(-c3ccc(C(=O)NCC(=O)N4CCOCC4)cc3Cl)cs2)ccn1 [Compound 61, 4-[5-(2-tert-butylpyridin-4-yl)thiophen-3-yl]-3-chloro-N-[2-(morpholin-4-yl)-2-oxoethyl]benzamide] | > 10 | –
– | CN1C2CCC1CC(NC(=O)c1ccc(-c3csc(-c4ccnc(C(C)(C)C)c4)c3)c(Cl)c1)C2 (stereo not drawn) [Compound 62] | > 10 | > 3
2.1 | CCOC(=O)NC1CCN(C(=O)c2ccc(-c3csc(-c4ccnc(C(C)(C)C)c4)c3)c(Cl)c2)CC1 [Compound 63, ethyl N-(1-{4-[5-(2-tert-butylpyridin-4-yl)thiophen-3-yl]-3-chlorobenzoyl}piperidin-4-yl)carbamate] | > 10 | –
0.4 | CC(C)(C)OC(=O)NC1CCCN(C(=O)c2ccc(-c3csc(-c4ccnc(N5CCOCC5)c4)c3)c(Cl)c2)C1 (stereo not drawn) [Compound 64, tert-butyl N-[1-(3-chloro-4-{5-[2-(morpholin-4-yl)pyridin-4-yl]thiophen-3-yl}benzoyl)piperidin-3-yl]carbamate] | > 10 | –
2.4 | NC1CCCN(C(=O)c2ccc(-c3csc(-c4ccnc(N5CCOCC5)c4)c3)c(Cl)c2)C1 (stereo not drawn) [Compound 65, 1-(3-chloro-4-(5-[2-(morpholin-4-yl)pyridin-4-yl]thiophen-3-yl)benzoyl)piperidin-3-amine] | > 10 | –
> 10 | Cc1sc(-c2ccnc(C(C)(C)C)c2)cc1-c1ccc(C(=O)N2CCCC(N)C2)cc1Cl (stereo not drawn) [Compound 66, 1-{4-[5-(2-tert-butylpyridin-4-yl)-2-methylthiophen-3-yl]-3-chlorobenzoyl}piperidin-3-amine] | > 10 | –
– | Cc1sc(-c2ccnc(C(C)(C)C)c2)cc1-c1ccc(C(=O)Nc2ccccc2)cc1Cl [Compound 67, 4-[5-(2-tert-butylpyridin-4-yl)-2-methylthiophen-3-yl]-3-chloro-N-phenyl benzamide] | > 10 | 4.7
0.15 | CC(C)(C)c1cc(-c2csc(-c3ccc(C(=O)N4CC[C@H](O)C4)cc3Cl)c2)ccn1 [Compound 68a, (3S)-1-{4-[4-(2-tert-butylpyridin-4-yl)thiophen-2-yl]-3-chlorobenzoyl}pyrrolidin-3-ol] | > 10 | –
0.06 | CC(C)(C)c1cc(-c2csc(-c3ccc(C(=O)N4CC[C@@H](O)C4)cc3Cl)c2)ccn1 [Compound 68b, (3R)-1-{4-[4-(2-tert-butylpyridin-4-yl)thiophen-2-yl]-3-chlorobenzoyl}pyrrolidin-3-ol] | > 10 | –
0.015 | CC(C)(C)OC(=O)N[C@@H]1CCCN(C(=O)c2ccc(-c3cc(-c4ccnc(C(C)(C)C)c4)cs3)c(Cl)c2)C1 [Compound 69, tert-butyl N-[(3R)-1-{4-[4-(2-tert-butylpyridin-4-yl)thiophen-2-yl]-3-chlorobenzoyl}piperidin-3-yl]carbamate] | > 10 | –
0.08 | CN(C(=O)OC(C)(C)C)C1CCCN(C(=O)c2ccc(-c3csc(-c4ccnc(C(C)(C)C)c4)c3)c(Cl)c2)C1 (stereo not drawn) [Compound 70, tert-butyl N-(1-{4-[5-(2-tert-butylpyridin-4-yl)thiophen-3-yl]-3-chlorobenzoyl}piperidin-3-yl)-N-methylcarbamate] | > 10 | –
0.34 | CC(C)(C)OC(=O)N1CCCC(NC(=O)c2ccc(-c3csc(-c4ccnc(C(C)(C)C)c4)c3)c(Cl)c2)C1 (stereo not drawn) [Compound 71, tert-butyl 3-{4-[5-(2-tert-butylpyridin-4-yl)thiophen-3-yl]-3-chlorobenzamido}piperidine-1-carboxylate] | > 10 | –
